Values of other authors as cited in patent US5252560A, “Cyclic imide derivatives, compositions and use” (Glaxo Inc., priority 1991, dated 1993).

Tested on: arthritis in a collagen-induced model
Conditions: large doses; collagen-induced model in the mouse

Question: Which severity of arthritis does the source give for “TIMP: the natural inhibitor of collagenase” here?
Answer: The severity of arthritis was “decreases the severity of arthritis”.
